The nature of series [1]: In vitro survival of bone marrow control cells (radiometric BACTEC). It counts as cell-based. Also noted: concentration or dose not given beside the values. An excerpt: (§1) CELL LINES: Eight different established human cell lines CALU (lung), COLO320 (colon), H578St (breast), HT-29 (colon), MCF-7 (breast), OM-1 (colon), SKLU (lung) and SKMES(lung), and two control cell lines (bone marrow and/or fibroblast cells) were utilized. All cell lines were obtained from the Tumor Cloning Laboratory, Institute for Drug Development, Cancer Therapy and Research Center, San Antonio, Tex. All cell lines grew as monolayers in the appropriate culture medium supplemented with heat-inactivated calf serum. All reagents were obtained from Grand Island Biological Co., Grand Island, N.Y.
(§2) The iv formulations of the compounds of the present invention were prepared with sterile buffered saline and stored at -70° C. until required for testing.
(§3) Following trypsinization, tumor cells were suspended in tissue culture medium and exposed to the antitumor agents continuously at three different concentrations: 10, 1 and 0.1 μg/ml.
(§4) RADIOMETRIC MEASUREMENT OF GROWTH INHIBITION: Growth inhibition was assessed with the BACTEC System 460 (Johnston Laboratories, Towson, Md.) after addition of the antitumor agent to the cell in the respective growth medium containing ^14 C-glucose at a final concentration of 2 μCi/ml.
(§5) Two mls of the tumor cell suspension containing radioactive glucose were seeded into sterile, disposable 15 ml vials by injection through self-sealing rubber-aluminum caps. […] The seeded vials were then incubated at 37° C. Measurement of the release of ^14 CO2 resulting from the metabolism of ^14 C-glucose were performed on days 6, 9, 12 and 15 in the BACTEC instrument. This instrument flushes the ^14 CO2 containing air out of the vials into an ionization chamber that converts dpm to growth index values. […] Each data point represents triplicate values.
(§6) All compounds were dosed on an equimilimolar basis.

For another series, the system named is HS578T (breast). Nature of the series: Radiometric growth inhibition of tumor cells, HS578T. The following applies: for % SURVIVAL TUMOR: continuous exposure; for IC50: Homo sapiens, Hs-578T. It counts as cell-based, human.
Description: as §1, §2, §3, §4, §5, §6

In a further series the test system is OM-1 (colon). Nature of the series: Radiometric growth inhibition of tumor cells, OM-1. It counts as cell-based, human. Also noted: % SURVIVAL TUMOR: concentration or dose not given beside the values. The following applies: for IC50: Homo sapiens.
Description: as §1, §2, §3, §4, §5, §6

The next series deals with SKLU (lung). Nature of the series: Radiometric growth inhibition of tumor cells, SKLU. The format is cell-based, human. More on the design: % SURVIVAL TUMOR: concentration or dose not given beside the values. The following applies: for IC50: Homo sapiens.
Description: as §1, §2, §3, §4, §5, §6

The test system of the next series is COLO320 (colon). Nature of the series: Radiometric growth inhibition of tumor cells, COLO320. The following applies: for IC50: Homo sapiens, COLO 320. Also noted: % SURVIVAL TUMOR: concentration or dose not given beside the values. The format is cell-based, human.
Description: as §1, §2, §3, §4, §5, §6

The subject of a further series is MCF-7 (breast). Put plainly: Radiometric growth inhibition of tumor cells, MCF-7. It counts as cell-based, human. More on the design: % SURVIVAL TUMOR: concentration or dose not given beside the values. The following applies: for IC50: Homo sapiens, MCF7; for % SURVIVAL TUMOR: continuous exposure.
Description: as §1, §2, §3, §4, §5, §6

The next series concerns CALU (lung). Nature of the series: Radiometric growth inhibition of tumor cells, CALU. The format is cell-based, human. More on the design: % SURVIVAL TUMOR: concentration or dose not given beside the values.
Description: as §1, §2, §3, §4, §5, §6

The next series has as its system HT29 (colon). Nature of the series: Radiometric growth inhibition of tumor cells, HT29. It counts as cell-based, human. More on the design: % SURVIVAL TUMOR: concentration or dose not given beside the values.
Description: as §1, §2, §3, §4, §5, §6

Another series relates to SKMES (lung). Nature of the series: Radiometric growth inhibition of tumor cells, SKMES. The format is cell-based, human.
Description: as §1, with “N.Y. […]” for “N.Y.”
RADIOMETRIC MEASUREMENT OF GROWTH INHIBITION: Growth inhibition was assessed with the BACTEC System 460 (Johnston Laboratories, Towson, Md.) after addition of the antitumor agent to the cell in the respective growth medium containing ^14 C-glucose at a final concentration of 2 μCi/ml. […]
Two mls of the tumor cell suspension containing radioactive glucose were seeded into sterile, disposable 15 ml vials by injection through self-sealing rubber-aluminum caps. […] Chemotherapy sensitivity was calculated by comparing the growth index values of drug-treated vials to that observed in control vials. […]

Where [2] appears, read: HS578T, concentration required to kill 50%, read-out: IC 50.
Setting [3] is: OM-1, concentration required to kill 50%, read-out: IC 50.
The mark [4] stands for this setting: SKLU, concentration required to kill 50%, read-out: IC 50.

In brackets after ≈: the same amount, converted by molar mass. Where two headings read alike, the source gives them in different places.

The source of these data is patent US5559101A, “L-ribofuranosyl nucleosides” (priority 1994, dated 1996).

As to `Nc1nc(S)c2ncn([C@H]3O[C@@H](CO)[C@H](O)[C@@H]3O)c2n1` [β-L-ribofuranosyl-6-thioguanine, 9-β-L-Ribofuranosyl-6-thioguanine], in [1] (bone marrow cells), the viability was found to be 97.4%. The “% SURVIVAL TUMOR” value in the series on HS578T (breast) (HS578T) came out at 66.6%; with OM-1 (colon) (human, om-1 colon tumor cells) it was 83.1%; in the series with SKLU (lung) (human, sklu lung tumor cells), 45.1%. Also, the IC50 in the series with HS578T (breast) (setting [2]) amounted to 17.1 µg/mL (≈ 57.1 µM); in the series with OM-1 (colon) (setting [3]), 42.7 µg/mL (≈ 143 µM); in the series on SKLU (lung) (setting [4]), 8.7 µg/mL (≈ 29.1 µM).

Regarding `O=c1[nH]cnc2c1ncn2[C@H]1O[C@@H](CO)[C@H](O)[C@@H]1O` [β-:-ribofuranosyl hypoxanthine, 9-β-L-Ribofuranosylhypoxanthine], in series [1] (bone marrow control cells, continuous exposure, read-out: % SURVIVAL BONE MARROW), the viability stood at 118%. The “% SURVIVAL TUMOR” value in the series with COLO320 (colon) (COLO320, continuous exposure) amounted to 68.2%; with HS578T (breast) (HS578T) it was 93.4%; in the series on MCF-7 (breast) (MCF-7) it was 96.8%; in the series with OM-1 (colon) (OM-1, continuous exposure), 87.3%; in the series with SKLU (lung) (SKLU, continuous exposure), 82.5%. For the same compound, the IC50 in the series on COLO320 (colon) (COLO320, concentration required to kill 50%, read-out: IC 50) is 17.9 µg/mL (≈ 66.7 µM); in the series on HS578T (breast) (setting [2]), greater than 10 µg/mL; in the series with MCF-7 (breast) (MCF-7, concentration required to kill 50%, read-out: IC 50), 38.1 µg/mL (≈ 142 µM); in the series with OM-1 (colon) (setting [3]), 82.7 µg/mL (≈ 308 µM); in the series with SKLU (lung) (setting [4]), 48.1 µg/mL (≈ 179 µM).

As for `O=c1[nH]cc(F)c(=O)[nH]1` [Example 5-FU, 5-fluorouracil, reference compound], the viability in series [1] (bone marrow cells) amounted to 1.9%. The “% SURVIVAL TUMOR” value worked out at 2.2% in the series on CALU (lung) (CALU, continuous exposure); 1.0% with COLO320 (colon) (human, colo320 colon tumor cells); 43.5% in the series with HS578T (breast) (HS578T); 1.2% with HT29 (colon) (HT29, continuous exposure); 0.8% in the series on MCF-7 (breast) (MCF-7); 1.7% in the series with OM-1 (colon) (human, om-1 colon tumor cells). Further, the “% SURVIVAL TUMOR” value in the series on SKLU (lung) (human, sklu lung tumor cells) stood at 5.0%; in the series with SKMES (lung) (continuous exposure) it was 11.2%. Moreover, the IC50 was less than 0.6 µg/mL with CALU (lung) (Homo sapiens); less than 0.6 µg/mL with COLO320 (colon); less than 0.6 µg/mL with HS578T (breast); 0.613 µg/mL (≈ 4.71 µM) with HT29 (colon) (Homo sapiens, HT-29); less than 0.6 µg/mL in the series on MCF-7 (breast); 1.47 µg/mL (≈ 11.3 µM) with OM-1 (colon). Moreover, the IC50 was 1.05 µg/mL (≈ 8.07 µM) in the series on SKLU (lung) and less than 0.6 µg/mL with SKMES (lung) (Homo sapiens, concentration required to kill 50%).
